From article PMC9697826 (Pharmaceuticals, 2022)

How the values were obtained:
[1] = test system: colon cancer cells; set-up: method as in PMID 33088219; conditions: treatment with the FABP4 inhibitor; cited from earlier work
[2] = target: T1, FABP4 (Homo sapiens, UniProt P15090); test: FABP4 Inhibitor/Ligand Screening Assay Kit: displacement of a fluorescent detection reagent; assay type: binding; conditions: displacement of detection reagent from FABP4; compounds diluted in PBS pH 7.4; fluorescence em 470 nm, ex 370 nm
T1 construct: purchased Cayman Chemical 10010231
T1 sequence (P15090 whole entry): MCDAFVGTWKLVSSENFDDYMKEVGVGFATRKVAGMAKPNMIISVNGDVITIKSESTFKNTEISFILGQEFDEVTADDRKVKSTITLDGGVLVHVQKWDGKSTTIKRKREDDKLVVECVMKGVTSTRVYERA
Description: FABP4 inhibitory activity was assessed by measuring the decrease in fluorescent signal of a detection reagent (DR) when displaced by a strong FABP4 ligand. […] Therefore, any effective ligand of the protein, which binds to the same binding pocket and can displace the DR, determines a reduction in the fluorescence read-out. The new molecular series was screened in a two-step procedure. Firstly, a single concentration of 5 µM was used to gain an estimation of the overall inhibitory effect of all the molecules.
To analyze the inhibitory activity of FABP4 ligands, a displacement assay was utilized as described by the Cayman’s instruction, FABP4 Inhibitor/Ligand Screening Assay Kit, Item 10,010,231 (see Supplementary Materials for additional details). The samples of compounds for activity determination were prepared as a stock solution (1 mM) in DMSO. On the day of activity assay, the compounds were all diluted in phosphate buffer solution (PBS, pH 7.4) to different concentrations (100, 50, 10, 5, 2, 1, and 0 µM). Appropriate concentrations of DMSO in PBS were used as control. The detection reagent (FABP Assay Detection Reagent, Item 10010376) was used as provided by the Cayman’s kit. The diluted Detection Reagent probe was mixed with FABP4 protein present in the kit and incubated for 10 min at room temperature. Compounds were then added and equilibrated for another 10 min. Lastly, the fluorescence signal was recorded at 470 nm (i.e., emission, with the excitation fixed at 370 nm) with a CytoFluor® Series 4000 Fluorescence Multi-Well Plate Reader.

For `CCc1c(-c2ccccc2)c(-c2ccccc2)nn1-c1ccccc1-c1cccc(OCC(=O)O)c1` [BMS309403], the “migration and invasion of colon cancer cells” value [1] is given as “weakened”.
With `CSc1nnc(-c2ccccc2)cc1N` [Compound 27, 3-Methylsulfanyl-6-phenyl-pyridazin-4-ylamine] the melting point was 168 to 170 °C and the IC50 [2] was greater than 50 µM.
`CC(=O)N1CCN(C(=O)c2ccc(Nc3cc(-c4ccccc4)nn(C)c3=O)cc2)CC1` [Compound 35, 4-[4-(4-Acetyl-piperazine-1-carbonyl)-phenylamino]-2-methyl-6-phenylpyridazin-3(2H)-one] gave a melting point of 213 to 215 °C and an IC50 [2] greater than 50 µM.
With `Cc1cc(NC(N)=O)c(=O)n(-c2ccccc2)n1` [Compound 55, 1-(6-Methyl-3-oxo-2-phenyl-2,3-dihydropyridazin-4-yl)urea] the melting point was 288 to 290 °C and the IC50 [2] was greater than 50 µM.
